From ChEMBL document CHEMBL1145476, “Inhibitory activities of three classes of acyclic nucleoside phosphonates against murine polyomavirus and primate simian virus 40 strains” (Antimicrob Agents Chemother, 2007)

How the values were obtained:
Murine polyomavirus [1] = experiment: Antiviral activity against Murine polyomavirus MN/RDE Toronto in mouse UC1B cells assessed as reduction of virus-induced cytopathogenicity; assay type: functional, cell-based; details: Alphapolyomavirus muris
[2] = Selectivity index, ratio of CC50 for mouse UC1B cells to EC50 of Murine polyomavirus LID1; assay type: functional
Simian virus 40 [3] = experiment: Antiviral activity against Simian virus 40 PML2 DAR in african green monkey BSC1 cells assessed as reduction of virus-induced cytopathogenicity; assay type: functional, organism-based; details: Betapolyomavirus macacae, BSC-1
[4] = Cytotoxicity against african green monkey BSC1 cells; assay type: cell-based, BSC-1; details: chlorocebus aethiops
Simian virus 40 [5] = experiment: Antiviral activity against Simian virus 40 A2895 in african green monkey BSC1 cells assessed as reduction of virus-induced cytopathogenicity; assay type: functional, organism-based; details: Betapolyomavirus macacae, A2895, BSC-1
[6] = Selectivity index, ratio of CC50 for mouse UC1B cells to EC50 of Murine polyomavirus 2PTA2; assay type: functional
[7] = Selectivity index, ratio of CC50 for mouse UC1B cells to EC50 of Murine polyomavirus PTA; assay type: functional
[8] = Cytotoxicity against mouse UC1B cells; assay type: cell-based
[9] = Selectivity index, ratio of CC50 for mouse UC1B cells to EC50 of Murine polyomavirus MN/RDE Toronto; assay type: functional
Murine polyomavirus [10] = experiment: Antiviral activity against Murine polyomavirus 2PTA2 in mouse UC1B cells assessed as reduction of virus-induced cytopathogenicity; assay type: functional, cell-based; details: Alphapolyomavirus muris, 2PTA2, UC1B
Simian virus 40 [11] = experiment: Antiviral activity against Simian virus 40 PML1 EK in african green monkey BSC1 cells assessed as reduction of virus-induced cytopathogenicity; assay type: functional, organism-based; details: Betapolyomavirus macacae, BSC-1
Murine polyomavirus [12] = experiment: Antiviral activity against Murine polyomavirus LID1 ATCC VR-252 in mouse UC1B cells assessed as reduction of virus-induced cytopathogenicity; assay type: functional, cell-based; details: Alphapolyomavirus muris
[13] = Selectivity index, ratio of CC50 for african green monkey BSC1 cells ot EC50 for Simian virus 40 PML2 DAR; assay type: functional, BSC-1
[14] = Selectivity index, ratio of CC50 for african green monkey BSC1 cells ot EC50 for Simian virus 40 PML1 EK; assay type: functional, BSC-1
Murine polyomavirus [15] = experiment: Antiviral activity against Murine polyomavirus PTA in mouse UC1B cells assessed as reduction of virus-induced cytopathogenicity; assay type: functional, cell-based; details: Alphapolyomavirus muris
[16] = Selectivity index, ratio of CC50 for african green monkey BSC1 cells ot EC50 for Simian virus 40 A2895; assay type: functional, BSC-1
Simian virus 40 [17] = experiment: Antiviral activity against Simian virus 40 A2895 in african green monkey BSC1 cells assessed as reduction of virus yield; assay type: functional; details: Betapolyomavirus macacae, A2895, BSC-1
Murine polyomavirus [18] = experiment: Antiviral activity against Murine polyomavirus LID1 in UC1B cells assessed as reduction of virus yield; assay type: functional; details: Alphapolyomavirus muris
Murine polyomavirus [19] = experiment: Antiviral activity against Murine polyomavirus PTA in UC1B cells assessed as reduction of virus yield; assay type: functional; details: Alphapolyomavirus muris

EC50 (Murine polyomavirus [1])	EC50 (Simian virus 40 [3])	EC50 (Simian virus 40 [5])	EC50 (Murine polyomavirus [10])	EC50 (Simian virus 40 [11])	EC50 (Murine polyomavirus [12])	EC50 (Murine polyomavirus [15])	SMILES	Ratio CC50/EC50 [2]	CC50 [4]	Ratio CC50/EC50 [6]	Ratio CC50/EC50 [7]	CC50 [8]	Ratio CC50/EC50 [9]	Ratio CC50/EC50 [13]	Ratio CC50/EC50 [14]	Ratio CC50/EC50 [16]	EC99 (Simian virus 40 [17])	EC99 (Murine polyomavirus [18])	EC99 (Murine polyomavirus [19])
39 µM	38.3 µM	32.6 µM	47.4 µM	49.8 µM	58.6 µM	65.3 µM	Nc1ncnc2c1ncn2C[C@H]1COP(=O)(O)CO1	3.2	371 µM	4	2.9	190 µM	4.9	9.7	7.5	11.4	–	–	–
9.6 µM	16.1 µM	16.1 µM	13.9 µM	14.6 µM	16.1 µM	13.9 µM	Nc1ncn(C[C@@H](CO)OCP(=O)(O)O)c(=O)n1	18.2	436 µM	21.1	21.1	294 µM	30.6	27.4	29.9	27.1	–	–	–
17.1 µM	19.1 µM	19.8 µM	20.6 µM	19.8 µM	38.1 µM	32 µM	Nc1ncn(C[C@H]2COP(=O)(O)CO2)c(=O)n1	3.7	323 µM	6.8	4.3	139 µM	8.1	16.9	16.3	16.3	–	–	–
0.55 µM	0.34 µM	0.3 µM	0.56 µM	0.23 µM	0.88 µM	0.53 µM	CCCCCCCCCCCCCCCCOCCOP1(=O)CO[C@@H](Cn2cnc(N)nc2=O)CO1 (stereo not given in full)	21.4	13.4 µM	33.6	35.5	18.8 µM	34.2	39.4	58.3	44.7	0.26 µM	0.81 µM	0.43 µM
9.9 µM	7.3 µM	13.9 µM	11.6 µM	6 µM	13.9 µM	14.9 µM	Nc1nccc2c1ncn2C[C@@H](CO)OCP(=O)(O)O	3.5	43.7 µM	4.2	3.3	49 µM	4.9	6	7.3	3.1	–	–	–
34.9 µM	18.5 µM	22.2 µM	61.2 µM	20.8 µM	42 µM	54.4 µM	Nc1ccn(C[C@H]2COP(=O)(O)CO2)c(=O)n1 [CYCLIC CIDOFOVIR]	13.8	≥ 672 µM	9.5	10.7	582 µM	16.7	>=36.3	>=32.3	>=30.3	–	–	–

The next lines start with the compound.

SMILES	EC50 (Murine polyomavirus [1])	EC50 (Simian virus 40 [3])	EC50 (Simian virus 40 [5])	EC50 (Murine polyomavirus [10])	EC50 (Simian virus 40 [11])	EC50 (Murine polyomavirus [12])	EC50 (Murine polyomavirus [15])	Ratio CC50/EC50 [2]	CC50 [4]	Ratio CC50/EC50 [6]	Ratio CC50/EC50 [7]	CC50 [8]	Ratio CC50/EC50 [9]	Ratio CC50/EC50 [13]	Ratio CC50/EC50 [14]	Ratio CC50/EC50 [16]	EC99 (Simian virus 40 [17])	EC99 (Murine polyomavirus [18])	EC99 (Murine polyomavirus [19])
Nc1nc(N)c2ncn(C[C@@H](CO)OCP(=O)(O)O)c2n1	7.2 µM	47.1 µM	49.3 µM	6.3 µM	33.6 µM	9.1 µM	8.2 µM	2.4	217 µM	3.4	2.6	21.4 µM	3	4.6	6.5	4.4	–	–	–
Nc1cc(OC[C@@H](CO)OCP(=O)(O)O)nc(N)n1	11.2 µM	112 µM	72.8 µM	13.9 µM	73.1 µM	8.2 µM	10.9 µM	1.3	140 µM	0.8	1	10.5 µM	0.9	1.2	1.9	1.9	–	–	–
Nc1ncnc2c1ncn2C[C@@H](CO)OCP(=O)(O)O	9.5 µM	10.2 µM	12.3 µM	9.5 µM	15.4 µM	13.2 µM	14.5 µM	1.8	89.3 µM	2.6	1.7	24.3 µM	2.6	8.8	5.8	7.3	–	–	–
Nc1cc(OCCOCP(=O)(O)O)nc(N)n1	21.2 µM	181 µM	148 µM	15.9 µM	140 µM	12.1 µM	9.5 µM	3.6	72.8 µM	2.7	4.5	43.2 µM	2	0.4	0.5	0.5	–	–	–
Nc1ncnc2c1ncn2CCOCP(=O)(O)O [ADEFOVIR]	9.5 µM	126 µM	158 µM	12.8 µM	168 µM	9.9 µM	11.3 µM	2.4	210 µM	1.9	2.1	24.2 µM	2.5	1.7	1.3	1.3	–	–	–
Nc1ccn(C[C@@H](CO)OCP(=O)(O)O)c(=O)n1.O.O [CIDOFOVIR]	13 µM	17.8 µM	19 µM	19 µM	19.3 µM	18.7 µM	16.2 µM	9	424 µM	8.9	10.4	169 µM	13	23.8	21.9	22.3	–	–	–
